Laboratory results reported in patent publication US11492327B2, “Aminooxylipids for the construction of self-assembling liposomal systems enabling their subsequent modification by biologically functional molecules” (VYSOKA SKOLA CHEMICKO-TECHNOLOGICKA V PRAZE, priority 2016, dated 2022).

Legend:
[1] = HA binding onto liposomes presenting the aminooxy group vs. the amino group (gel chromatography, fluorimetry); details: incubated in 10 mM citric acid; lipid incorporated in liposomes
Experimental: Methods: Liposomes presenting the aminooxy group were prepared by the procedure described in Example 15, containing 1% aminooxylipidid of general formula I (according to Example 14) at a starting concentration of 10 mg/ml PBS. The amino group-presenting liposomes were prepared by the same technique with the amino group-containing lipid DOPE. These liposomes at a starting concentration of 10 mg/ml PBS were mixed with fluorescently labelled HA (Sigma-Aldrich) at a concentration of 1 mg/ml PBS in a ratio of 1 mg total lipid to 0.1 mg HA. Incubation takes place for at least 30 minutes at room temperature (see Example 19). Both samples were incubated in 10 mM citric acid. Unbound HA was removed on a Superose 6 column (200 μl spraying buffer, flow rate of the first milliliter was 0.1 ml/min, then 0.3 ml/min, collection of 1 ml fractions). Fluorescence was measured using a Perkin Elmer fluorimeter at appropriate wavelengths (excitation for FITC-HA was 490 nm, emission 505 nm).

[2] = tested on: H1299 cells of lung carcinoma cell line; assay: Cytotoxicity of liposomes: apoptotic cells detected with Annexin V by flow cytometry; assay type: cell-based; details: aminooxylipid incorporated into liposomal bilayer
Experimental: (§1) Methods: The cytotoxicity of liposomes prepared as described in Example 15 is determined by comparing the cytotoxicity of EPC liposomes and EPC liposomes with an incorporated aminooxylipid of general formula I (according to Example 12, 13 or 14) in in vitro experiments with T-lymphocytes and on H1299 cells of lung carcinoma cell line.
(§2) Measurements were performed on a flow cytometer Fortessa (Becton Dickinson). Apoptotic cells were detected and quantified using the fluorescent dye Annexin V (Invitrogen).
(§3) In all experiments, 500 μl media per well were used and lipid content was 100 μg per 1 ml of the medium. Unmodified liposomes and liposomes modified post-liposomally with hyaluronic acid were incubated. In Experiment 1, H1299 cells of lung carcinoma were incubated for 30 minutes at 4° C. In Experiment 2, T-lymphocytes were used and incubated at room temperature in a rotator. In Experiments 3 and 4, H1299 cells of lung carcinoma cell line were used and incubated for 2 hours in a CO2 incubator (37° C., 5% CO2). In Experiment 5, H1299 cells of lung carcinoma were used. These cells were incubated for 30 minutes at 4° C. in a refrigerator.

[3] = tested on: T-lymphocytes; assay: as above; assay type: cell-based; details: aminooxylipid incorporated into liposomal bilayer
Experimental: as §1, §2, §3

[4] = Size, PDI and zeta-potential of liposomes by DLS (Nanosizer ZS); assay type: physicochemical; details: for Effect of incorporation into liposomes on the final distribution of liposomes: 99% EPC, 1% aminooxylipid; for Zeta potential: liposomes containing 1% aminooxylipid in PBS solution with neutral pH
Experimental: Methods: Liposomes with incorporated aminooxylipids were prepared by phospholipid film hydration. All lipids were dissolved in chloroform at a concentration of 10 mg of lipid/1 ml chloroform at a molar ratio of 99% EPC to 1% aminooxylipids of general formula I (according to Examples 12, 13 and 14). The chloroform solution was evaporated in a globular flask on a rotary evaporator; pressure: 100 hPa, water bath temperature: 37° C., 90 revolutions/minute). The resulting lipid film was hydrated with PBS (pH 7.2, 0.14M NaCl, 20 mM Na-phosphate) to a final concentration of 10 mg/ml. The liposomes were then extruded through Nucleopore polycarbonate filters with 400 and 100 nm pore size. The size and zeta-potential were measured using a Nanosizer ZS (Malvern, UK) in a DTS cell, Attenuator value 4, 25° C. […] Example with a lipid of general formula I (according to Example 12): EPC liposomes: size 82 nm, PDI 0.11; EPC+ aminooxylipid 1%: size 81 nm, PDI 0.1.
DLS measurements were carried out under the same conditions as in Example 15.
Methods: The liposomes prepared as described in Example 15, containing 1% aminooxylipidid of general formula I (according to Example 14) at a starting concentration of 10 mg/ml PBS were mixed with a mannan solution in PBS in a ratio of 1 mg total lipid to 0.1 mg mannan. The reaction was carried out at room temperature. Low molecular weight components and unbound mannan were removed by gel chromatography on a Superose 6 column. The mannan binding onto the liposomal surface was confirmed by: a) scanning and transmission electron microscopy; b) the change in liposome size was determined by the DLS technique (Zetasizer ZS, Malvern UK). The polysaccharide mannan was isolated from the yeast Candida albicans. The size of the molecules of mannan and liposomes was measured by DLS. […] Dendritic cells were prepared by culture from peripheral blood of healthy donors. Their stimulating activity was compared with lipopolysaccharide activity (LPS, standard Salmonella minnesota).

| Structure (SMILES) | HA remaining bound after acidification, % of the original HA [1] | Cytotoxicity of EPC liposomes with incorporated aminooxylipid vs. EPC liposomes [2] | Cytotoxicity of EPC liposomes with incorporated aminooxylipid vs. EPC liposomes [3] | Effect of incorporation into liposomes on the final distribution of liposomes ([4]; Example 15) | PDI ([4]; Example 15, EPC liposomes without or with 1% aminooxylipid, PBS) | size ([4]; Example 15, EPC liposomes without or with 1% aminooxylipid, PBS, extruded 400 and 100 nm) | Zeta potential [4] | size (size distribution, particle numbers) ([4]; Example 20, FIG. 3, liposomes with 1% aminooxylipid, alone or coupled with IgY) |
| --- | --- | --- | --- | --- | --- | --- | --- | --- |
| CCCCCCCC/C=C\CCCCCCCC(=O)OC[C@H](COP(=O)(O)OCCN)OC(=O)CCCCCCC/C=C\CCCCCCCC [DOPE, 1,2-dioleoyl-sn-glycero-3-phosphoethanolamine, reference compound] | 20% | – | – | – | – | – | – | – |
| CCCCCCCCCCCCCCC(CCCCCCCCCCCCCC)C(=O)NCCNC(=O)CON.O=C(O)C(F)(F)F [Example 12, N^1-(2-tetradecylhexadecanoyl)-N^2-amoniumoxyacetyl-1,2-diaminoethane-trifluoroacetate] | – | does not result in an increase in their cytotoxicity | does not result in an increase in their cytotoxicity | no significant effect | 0.1 | 81 nm | around 0 mV | – |
| CCCCCCCCCCCCCCC(CCCCCCCCCCCCCC)C(=O)NCCCNC(=O)CON.O=C(O)C(F)(F)F [Example 13, N^1-(2-tetradecylhexadecanoyl)-N^3-amoniumoxyacetyl-1,3-diaminopropane-trifluoracetate] | – | does not result in an increase in their cytotoxicity | does not result in an increase in their cytotoxicity | no significant effect | – | – | around 0 mV | – |
| CCCCCCCCCCCCCCC(CCCCCCCCCCCCCC)C(=O)NCOC(CCOCC)NC(=O)CON.O=C(O)C(F)(F)F (centres unmarked) [Example 14, N^1-(2-tetradecylhexadecanoyl)-N^3-amoniumoxyacetyl-1,3-diamino-2,6-dioxaoctane-trifluoracetate] | did not change due to acidification | does not result in an increase in their cytotoxicity | does not result in an increase in their cytotoxicity | no significant effect | – | – | around 0 mV | 107 nm |
